# Results published in patent US7795259B2, “Pyrrolopyrazines and pyrazolopyrazines useful as inhibitors of protein kinases” (Vertex Pharmaceuticals Incorporated, priority 2004, dated 2010).
# Target: T1, full length Aurora-A (AA 1-403) (Homo sapiens, UniProt O14965)
# T1 sequence (O14965 1-403): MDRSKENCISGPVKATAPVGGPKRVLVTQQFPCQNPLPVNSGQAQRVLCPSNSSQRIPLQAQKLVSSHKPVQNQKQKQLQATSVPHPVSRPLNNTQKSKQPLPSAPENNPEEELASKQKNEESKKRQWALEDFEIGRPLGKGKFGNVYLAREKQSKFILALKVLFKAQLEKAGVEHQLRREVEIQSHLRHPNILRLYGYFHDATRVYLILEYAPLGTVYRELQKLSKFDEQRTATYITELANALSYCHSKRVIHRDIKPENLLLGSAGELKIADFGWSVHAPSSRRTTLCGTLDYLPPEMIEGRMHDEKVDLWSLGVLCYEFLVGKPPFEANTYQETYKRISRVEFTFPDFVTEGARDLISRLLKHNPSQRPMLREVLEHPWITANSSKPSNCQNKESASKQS
# Test: AuroraA Inhibition Assay (coupled enzyme system)
# Format: biochemical
# Details: 200 μM ATP, 800 μM peptide LRRASLG, 35 nM Aurora-A, 30° C.
# Method: Compounds were screened for their ability to inhibit full length Aurora-A (AA 1-403) activity using a standard coupled enzyme system (Fox et al., Protein Sci., 7, pp. 2249 (1998)). Reactions were carried out in a solution containing 100 mM HEPES (pH 7.5), 10 mM MgCl2, 25 mM NaCl, 300 μM NADH, 1 mM DTT and 3% DMSO. Final substrate concentrations in the assay were 200 μM ATP (Sigma Chemicals, St Louis, Mo.) and 800 μM peptide (LRRASLG, American Peptide, Sunnyvale, Calif.). Reactions were carried out at 30° C. and 35 nM Aurora-A. Final concentrations of the components of the coupled enzyme system were 2.5 mM phosphoenolpyruvate, 200 μM NADH, 60 μg/ml pyruvate kinase and 20 μg/ml lactate dehydrogenase.
# An assay stock buffer solution was prepared containing all of the reagents listed above with the exception of ATP and the test compound of interest. The assay stock buffer solution (60 μl) was incubated in a 96 well plate with 2 μl of the test compound of interest at final concentrations spanning 0.002 μM to 30 μM at 30° C. for 10 min. […] Rates of reaction were obtained using a Molecular Devices Spectramax plate reader (Sunnyvale, Calif.) over 10 min at 30° C. The Ki values were determined from the rate data as a function of inhibitor concentration using computerized nonlinear regression (Prism 3.0, Graphpad Software, San Diego, Calif.).
row,SMILES,Ki [nM]
1,"Clc1cnc2[nH]cc(-c3cccc(Br)c3)c2n1 [Compound I-1, 7-(3-Bromo-phenyl)-2-chloro-5H-pyrrolo[2,3-b]pyrazine]",< 200
2,C[C@H](Nc1nc(-c2c[nH]c3ncc(Cl)nc23)ncc1F)c1ccc(F)cc1 [Compound I-28],< 200
